Data published in patent US20230174507A1, “IMIDAZOLE 3-OXIDE DERIVATIVE BASED ACSS2 INHIBITORS AND METHODS OF USE THEREOF” (METABOMED LTD., priority 2020, published 2023).

Assays:
human ACSS1 protein = molecular target: T1, human ACSS1 protein (Homo sapiens, UniProt Q9NUB1); experiment: ACSS1 cell-free activity assay (pyrophosphatase-coupled, Biomol green); type: biochemical; conditions: 5 nM human ACSS1, 30 minutes at room temperature, absorbance at 620 nm; for IC50: read-out: ACSS1 Biochemical IC50
T1 construct: purchased MyBioSource
T1 sequence (Q9NUB1 38-689): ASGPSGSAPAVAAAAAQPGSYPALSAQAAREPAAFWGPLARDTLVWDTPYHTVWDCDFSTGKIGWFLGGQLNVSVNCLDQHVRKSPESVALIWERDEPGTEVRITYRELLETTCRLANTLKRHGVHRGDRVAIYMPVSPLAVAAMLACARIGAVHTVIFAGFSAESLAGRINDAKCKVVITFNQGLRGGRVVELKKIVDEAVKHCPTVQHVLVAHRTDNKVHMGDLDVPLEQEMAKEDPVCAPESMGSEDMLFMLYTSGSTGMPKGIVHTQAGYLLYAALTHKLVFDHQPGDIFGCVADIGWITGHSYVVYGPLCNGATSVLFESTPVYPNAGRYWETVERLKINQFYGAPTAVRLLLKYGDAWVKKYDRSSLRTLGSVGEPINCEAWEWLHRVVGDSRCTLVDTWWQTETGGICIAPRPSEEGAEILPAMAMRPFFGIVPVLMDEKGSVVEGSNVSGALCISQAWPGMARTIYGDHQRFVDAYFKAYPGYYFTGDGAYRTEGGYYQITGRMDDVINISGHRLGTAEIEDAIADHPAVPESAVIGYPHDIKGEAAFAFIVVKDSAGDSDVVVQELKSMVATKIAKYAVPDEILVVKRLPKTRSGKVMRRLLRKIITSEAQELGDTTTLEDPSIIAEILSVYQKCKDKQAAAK
How it was run: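 5 nM human ACSS1 incubated 30 min at RT with compound in pH 7.5 Hepes buffer with 15 μM CoA, 5 mM acetate, 300 μM ATP, 2 mM MgCl2 and pyrophosphatase. Released phosphate detected with Biomol Green (30 min), absorbance 620 nm. IC50 from constrained non-linear regression.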

human ACSS2 protein = molecular target: T2, human ACSS2 protein (Homo sapiens, UniProt Q9NR19); experiment: ACSS2 cell-free activity assay (pyrophosphatase-coupled, Biomol green); conditions: 10 nM human ACSS2, 90 minutes at 37 C, absorbance at 620 nm; read-out: ACSS2 Biochemical IC50
T2 construct: purchased OriGene Technologies, Inc
How it was run: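 10 nM human ACSS2 incubated 90 min at 37 C with compound, 300 μM ATP, 10 μM CoA, 5 mM NaAc in pH 7.5 Hepes buffer with 0.5 U/ml pyrophosphatase. Released phosphate detected with Biomol Green at 620 nm; IC50 by non-linear regression constrained to 0% and 100%.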

[1] = molecular target: T3, ACSS2 in MDA-MB-468 cells (Homo sapiens, UniProt Q9NR19); experiment: Cellular fatty-acid IC50: 13C-acetate incorporation into fatty acids (palmitate), LC-MS; type: cell-based; conditions: hypoxic conditions (1% O2), 75% charcoal stripped serum, 5 hours, 13C-acetate into palmitate, read-out: Cellular Fatty-acid IC50 High Serum MDA468
T3 construct: endogenous in cells; host or cells: MDA-MB-468 cells, hypoxia (1% O2)
Description: Cellular Fatty-Acid IC50 Determination:
The cellular activity of ACSS2 was measured in MDA-MB-468 cells under hypoxic conditions by tracing the incorporation of labelled carbons from ^13C-acetate into newly synthesized fatty acids. The assay was performed using 75% charcoal stripped serum (high serum conditions).
MDA-MB-468 cells were seeded in 12-well plates (0.35×10^6 cells per well) in plating medium (Dulbecco's Modified Eagle Medium containing 25 mM D-glucose, 1 mM sodium pyruvate, 10% v/v fetal bovine serum, and 2 mM glutamine) and incubated for 24 hours under hypoxic conditions (1% O2).
The next day, tracing medium containing DMEM (01-057-1A) containing 75% charcoal stripped serum (Biological industries 04-201-1A), 3.5 μg/mL Biotin (Sigma-Aldrich B4639), 1 mM Pyruvate, 5.5 mM Glucose, 0.65 mM Glutamine and 0.5 mM ^13C-Acetate (Sigma-Aldrich #282014) with serial dilutions of the compounds in the range of 0.000512-1000 nM were prepared. The plating medium was replaced with 1 mL tracing medium plus compounds and the cells were incubated for 5 hours under hypoxic conditions (1% O2). Plating medium in control wells (without cells or without compounds) was replaced with 1 mL tracing medium containing 0.01% v/v DMSO.
The level of ^13C-acetate incorporation into fatty acids (palmitate) was measured by LC-MS analysis and IC50 as described below:
Sample Preparation for LC-MS
• a) Cells were washed twice with cold phosphate buffered saline (PBS), scraped into 0.5 mL EDTA pH 8.0, and transferred into 1.1 mL V-shaped HPLC glass tubes. • b) The cell suspensions were centrifuged for 5 minutes at 400×g, 4° C. and the supernatants were removed. • c) Cell pellets were frozen at −80° C.
• d) Cell pellets were resuspended in 0.2 mL of 80% v/v ethanol in water containing 0.02 M NaOH in 1.1 ml glass (v-bottom) HPLC vials. • e) The vials were closed tight and incubated at 66° C. for 60 minutes. • f) Acetonitrile containing 2% v/v formic acid (150 μL) was added to each vial and the mixtures were transferred to Eppendorf tubes for centrifugation at 17 000×g for 20 minutes. • g) Supernatants were transferred to LC-MS vials.
The relative palmitate concentration was measured by LC-MS in reconstructed selected ion monitoring (RSIM) mode and negative ion mode. Samples were analyzed on a Phenomenex Kinetex 2.6 μm XB-C18 150×2.1 mm column at 45° C. (0.4 mL/minute flow rate) using: • a) A gradient from 15% A/85% C to 100% C for 0 to 2 minutes (A: water containing 5% v/v acetonitrile, 10 mM ammonium acetate, and 10 mM acetic acid; C: a mixture of 50% v/v acetonitrile and 50% v/v methanol). • b) Isocratic flow (100% C) for 2 to 5 minutes. • c) Equilibration in isocratic conditions (15% A/85% C) for 5 to 8 minutes.
Palmitate was eluted at approximately 3.4 minutes.
The percent inhibition was calculated relative to the sample without compound and after background deduction. IC50 values were calculated using non-linear regression curve fit analysis with 0% and 100% constraints (CDD Vault, Collaborative Drug Discovery, Inc. or GraphPad Prism).
The inhibitory activities of each compound against ACSS2 in MDA-MB-468 cells under high serum conditions, as determined by ^13C-acetate incorporation into fatty acids (palmitate), are presented in Table 2.

T3 sequence (Q9NR19 whole entry): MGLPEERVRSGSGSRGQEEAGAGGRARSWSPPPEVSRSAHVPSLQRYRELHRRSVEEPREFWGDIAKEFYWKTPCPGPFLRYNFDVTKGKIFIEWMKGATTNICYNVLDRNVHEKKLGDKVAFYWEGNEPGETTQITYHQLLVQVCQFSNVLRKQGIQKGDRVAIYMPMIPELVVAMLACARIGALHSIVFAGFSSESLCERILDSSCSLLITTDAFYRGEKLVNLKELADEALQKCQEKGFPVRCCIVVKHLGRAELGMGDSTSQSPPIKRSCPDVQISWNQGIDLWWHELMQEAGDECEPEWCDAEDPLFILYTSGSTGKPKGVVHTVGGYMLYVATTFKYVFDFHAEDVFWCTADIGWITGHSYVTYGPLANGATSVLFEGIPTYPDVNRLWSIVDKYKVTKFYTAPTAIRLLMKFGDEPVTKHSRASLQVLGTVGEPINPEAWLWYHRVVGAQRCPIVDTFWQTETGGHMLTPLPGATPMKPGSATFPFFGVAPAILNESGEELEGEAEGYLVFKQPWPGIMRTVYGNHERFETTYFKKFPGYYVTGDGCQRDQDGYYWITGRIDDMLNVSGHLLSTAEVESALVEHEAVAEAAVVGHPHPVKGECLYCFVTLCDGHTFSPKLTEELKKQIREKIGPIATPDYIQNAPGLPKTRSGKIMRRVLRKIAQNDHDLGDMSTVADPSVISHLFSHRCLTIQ
T2 sequence (Q9NR19 whole entry): as above

SMILES	ACSS1 Biochemical IC50 (nM) (human ACSS1 protein)	IC50 (human ACSS2 protein) [nM]	IC50 [1] [nM]	IC50 (human ACSS1 protein) [nM]
COc1ccc(-c2[nH]c(C)c(C(=O)Nc3cccc(C(F)(F)C4CC4)c3)[n+]2[O-])cc1-c1c(C)cncc1C [Compound 105, 4-((3-(cyclopropyldifluoromethyl)phenyl)carbamoyl)-2-(3-(3,5-dimethylpyridin-4-yl)-4-methoxyphenyl)-5-methyl-1H-imidazole 3-oxide]	Inactive	< 1	< 20	
Cc1[nH]c(-c2ccc(OCCCN3CCCC3)cc2)[n+]([O-])c1C(=O)Nc1cccc(C(F)(F)C2CC2)c1 [Compound 174, 4-((3-(cyclopropyldifluoromethyl)phenyl)carbamoyl)-5-methyl-2-(4-(3-(pyrrolidin-1-yl)propoxy)phenyl)-1H-imidazole 3-oxide]	Inactive	1 to 30	> 50	
COc1cc(-c2c(C)cccc2C)cc(-c2[nH]c(C)c(C(=O)Nc3cccc(C(F)(F)C4CC4)c3)[n+]2[O-])c1 [Compound 131, 4-((3-(cyclopropyldifluoromethyl)phenyl)carbamoyl)-2-(5-methoxy-2′,6′-dimethyl-[1,1′-biphenyl]-3-yl)-5-methyl-1H-imidazole 3-oxide]	Inactive	< 1	20 to 50	
Cc1cccc(C)c1-c1cc(-c2[nH]c(C)c(C(=O)Nc3cccc(C(F)(F)F)c3)[n+]2[O-])ccc1F [Compound 203, 2-(6-fluoro-2′,6′-dimethyl-[1,1′-biphenyl]-3-yl)-5-methyl-4-((3-(trifluoromethyl)phenyl)carbamoyl)-1H-imidazole 3-oxide]	Inactive	< 1	> 50	
Cc1cccc(C)c1-c1cc(CN(C)C)cc(-c2[nH]c(C)c(C(=O)Nc3cccc(C(F)(F)C4CC4)c3)[n+]2[O-])c1 [Compound 175, 4-((3-(cyclopropyldifluoromethyl)phenyl)carbamoyl)-2-(5-((dimethylamino)methyl)-2′,6′-dimethyl-[1,1′-biphenyl]-3-yl)-5-methyl-1H-imidazole 3-oxide]	Inactive	< 1	< 20	
CNC(=O)c1cccc(NC(=O)c2c(C)[nH]c(-c3cccc(-c4c(C)cccc4C)c3)[n+]2[O-])c1 [Compound 176, 2-(2′,6′-dimethyl-[1,1′-biphenyl]-3-yl)-5-methyl-4-((3-(methylcarbamoyl)phenyl)carbamoyl)-1H-imidazole 3-oxide]		< 1	< 20	> 30
COc1ccc(-c2[nH]c(C)c(C(=O)Nc3cccc(C(F)(F)C4CC4)c3)[n+]2[O-])cc1-c1c(C)cccc1C [Compound 104, 4-((3-(cyclopropyldifluoromethyl)phenyl)carbamoyl)-2-(6-methoxy-2′,6′-dimethyl-[1,1′-biphenyl]-3-yl)-5-methyl-1H-imidazole 3-oxide]	Inactive	< 1	20 to 50	
CNc1cc(-c2c(C)cccc2C)cc(-c2[nH]c(C)c(C(=O)Nc3cccc(C(F)(F)C4CC4)c3)[n+]2[O-])c1 [Compound 147, 4-((3-(cyclopropyldifluoromethyl)phenyl)carbamoyl)-2-(2′,6′-dimethyl-5-(methylamino)-[1,1′-biphenyl]-3-yl)-5-methyl-1H-imidazole 3-oxide]	Inactive	1 to 30	20 to 50	
CCC(F)(F)c1cccc(NC(=O)c2c(C)[nH]c(-c3cc(-c4c(C)cccc4C)c(OC)cn3)[n+]2[O-])c1 [Compound 157, 4-((3-(1,1-difluoropropyl)phenyl)carbamoyl)-2-(4-(2,6-dimethylphenyl)-5-methoxypyridin-2-yl)-5-methyl-1H-imidazole 3-oxide]	Inactive	< 1	> 50	
COc1cc(F)c(-c2[nH]c(C)c(C(=O)Nc3cccc(C(F)(F)C4CC4)c3)[n+]2[O-])nc1-c1c(C)cccc1C [Compound 202, 4-((3-(cyclopropyldifluoromethyl)phenyl)carbamoyl)-2-(6-(2,6-dimethylphenyl)-3-fluoro-5-methoxypyridin-2-yl)-5-methyl-1H-imidazole 3-oxide]	Inactive	< 1	> 50	
CCC(F)(F)c1cccc(NC(=O)c2c(C)[nH]c(-c3cccc(-c4c(C)ncnc4C)c3)[n+]2[O-])c1 [Compound 112, 4-((3-(1,1-difluoropropyl)phenyl)carbamoyl)-2-(3-(4,6-dimethylpyrimidin-5-yl)phenyl)-5-methyl-1H-imidazole 3-oxide]		< 1	< 20	> 30
Cc1cccc(C)c1-c1cc(C#N)cc(-c2[nH]c(C)c(C(=O)Nc3cccc(C(F)(F)C4CC4)c3)[n+]2[O-])c1 [Compound 135, 2-(5-cyano-2′,6′-dimethyl-[1,1′-biphenyl]-3-yl)-4-((3-(cyclopropyldifluoromethyl)phenyl)carbamoyl)-5-methyl-1H-imidazole 3-oxide]	Inactive	< 1	20 to 50	
CNC(=O)c1cccc(NC(=O)c2c(C)[nH]c(-c3cc(NC)cc(-c4c(C)cccc4C)c3)[n+]2[O-])c1 [Compound 181, 2-(2′,6′-dimethyl-5-(methylamino)-[1,1′-biphenyl]-3-yl)-5-methyl-4-((3-(methylcarbamoyl)phenyl)carbamoyl)-1H-imidazole 3-oxide]		< 1	< 20	> 30
CNC(=O)c1cccc(NC(=O)c2c(C)[nH]c(-c3ccc(F)c(-c4c(C)cccc4C)c3)[n+]2[O-])c1 [Compound 177, 2-(6-fluoro-2′,6′-dimethyl-[1,1′-biphenyl]-3-yl)-5-methyl-4-((3-(methylcarbamoyl)phenyl)carbamoyl)-1H-imidazole 3-oxide]		< 1	< 20	> 30
